Counter-ions that a name gives are not always drawn. Blank lines part the entries; values can stand above or below the compound they belong to.
What was measured:
NHE [1] = target: T1, NHE (Homo sapiens, UniProt P48764); assay: recovery of intracellular pH in LAP1 cells expressing NHE (FLIPR, BCECF); assay type: cell-based; conditions: LAP1 cells stably expressing NHE, pH recovery after acidification
T1 sequence (P48764 26-834): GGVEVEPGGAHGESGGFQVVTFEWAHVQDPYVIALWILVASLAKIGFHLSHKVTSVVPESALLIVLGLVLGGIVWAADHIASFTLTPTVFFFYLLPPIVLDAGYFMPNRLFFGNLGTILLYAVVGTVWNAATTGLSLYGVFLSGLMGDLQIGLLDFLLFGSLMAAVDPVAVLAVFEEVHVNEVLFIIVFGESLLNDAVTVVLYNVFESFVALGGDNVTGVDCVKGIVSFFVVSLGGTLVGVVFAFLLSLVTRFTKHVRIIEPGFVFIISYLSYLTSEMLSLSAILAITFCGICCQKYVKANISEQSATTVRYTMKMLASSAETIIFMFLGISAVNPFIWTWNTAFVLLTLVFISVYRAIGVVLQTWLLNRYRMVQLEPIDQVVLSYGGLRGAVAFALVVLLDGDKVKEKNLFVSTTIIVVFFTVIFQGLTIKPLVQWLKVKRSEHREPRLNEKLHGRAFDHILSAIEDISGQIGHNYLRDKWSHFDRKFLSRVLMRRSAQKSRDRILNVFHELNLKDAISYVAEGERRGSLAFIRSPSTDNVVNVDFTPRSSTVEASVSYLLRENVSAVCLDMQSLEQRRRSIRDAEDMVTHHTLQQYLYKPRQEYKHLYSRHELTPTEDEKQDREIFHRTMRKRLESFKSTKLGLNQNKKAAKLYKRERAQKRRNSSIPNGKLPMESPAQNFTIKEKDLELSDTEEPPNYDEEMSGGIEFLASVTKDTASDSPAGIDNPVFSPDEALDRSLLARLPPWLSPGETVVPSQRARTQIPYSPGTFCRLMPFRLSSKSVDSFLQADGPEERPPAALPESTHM
Protocol: NHE and NHE5 Test Description:
In this test, the recovery in the intracellular pH (pHi) of LAP1 cells, which stably express the different subtypes of the sodium-proton exchanger (NHE), after an acidification was determined. This recovery sets in even under bicarbonate-free conditions in the case of functioning NHE. To this end, the pHi was determined with the pH-sensitive fluorescent dye BCECF (Molecular Probes, Eugene, Oreg., USA; the precursor BCECF-AM is used). The cells were first incubated with BCECF (5 μM BCECF-AM) in NH4Cl buffer (NH4Cl buffer: 115 mM cholineCl, 20 mM NH4Cl, 5 mM KCl, 1 mM CaCl2, 1 mM MgCl2, 20 mM Hepes, 5 mM glucose; a pH of 7.4 is established with 1 M KOH). […] The pH recovery was started by the addition of 90 μl of Na^+-containing buffer (133.8 mM NaCl, 4.7 mM KCl, 1.25 mM CaCl2, 1.25 mM MgCl2, 0.97 mM Na2HPO4, 0.23 mM NaH2PO4, 10 mM Hepes, 5 mM glucose; a pH of 7.4 is established with 1 M NaOH) in the analytical instrument (FLIPR, “Fluorometric Imaging Plate Reader”, Molecular Devices, Sunnyvale, Calif., USA). The BCECF fluorescence was determined at an excitation wavelength of 498 nm and the FLIPR emission filter 1 (band gap from 510 to 570 nm). The subsequent changes in fluorescence were registered for NHE and NHE5 for two minutes as a measure of the pH recovery. […]

hippocampus sections = assay: long-term experiments on hippocampus sections (in vitro), weak tetanus early LTP in CA 1; parameters: species or system rats; conditions: rat hippocampus sections, 10 μM
[2] = test system: adrenergic alpha-2 receptor; conditions: cited from earlier work
imidazoline receptor = conditions: cited from earlier work
NHE-1 = NHE-1 (Homo sapiens, UniProt P19634); assay: inhibitory action on NHE subtypes: NHE-1; conditions: therapeutically utilizable concentration range
NHE-1, sequence (P19634 whole entry, species assumed): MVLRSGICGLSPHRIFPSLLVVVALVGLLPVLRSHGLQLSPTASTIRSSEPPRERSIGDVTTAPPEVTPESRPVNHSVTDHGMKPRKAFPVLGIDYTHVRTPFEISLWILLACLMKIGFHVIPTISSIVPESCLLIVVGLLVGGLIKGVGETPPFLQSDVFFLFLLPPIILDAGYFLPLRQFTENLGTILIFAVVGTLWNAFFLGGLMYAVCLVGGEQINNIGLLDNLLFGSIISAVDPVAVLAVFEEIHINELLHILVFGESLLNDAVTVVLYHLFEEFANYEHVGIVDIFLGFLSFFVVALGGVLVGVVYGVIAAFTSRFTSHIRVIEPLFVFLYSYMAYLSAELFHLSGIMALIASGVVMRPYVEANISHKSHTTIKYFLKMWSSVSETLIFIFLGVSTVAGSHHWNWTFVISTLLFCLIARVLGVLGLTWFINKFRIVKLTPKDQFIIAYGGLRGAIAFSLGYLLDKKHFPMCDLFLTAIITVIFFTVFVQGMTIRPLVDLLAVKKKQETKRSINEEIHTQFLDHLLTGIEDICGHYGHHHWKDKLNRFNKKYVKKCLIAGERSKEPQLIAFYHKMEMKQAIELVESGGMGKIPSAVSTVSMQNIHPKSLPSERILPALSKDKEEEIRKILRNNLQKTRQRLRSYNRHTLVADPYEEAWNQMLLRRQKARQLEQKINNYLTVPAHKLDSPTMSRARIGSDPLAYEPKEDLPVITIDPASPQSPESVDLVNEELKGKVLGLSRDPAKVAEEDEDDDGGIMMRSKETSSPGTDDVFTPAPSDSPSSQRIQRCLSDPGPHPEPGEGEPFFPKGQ

NHE-2 = target: T2, NHE-2 (Homo sapiens, UniProt Q9UBY0); assay: inhibitory action on NHE subtypes: NHE-2; conditions: therapeutically utilizable concentration range
T2 sequence (Q9UBY0 1-812): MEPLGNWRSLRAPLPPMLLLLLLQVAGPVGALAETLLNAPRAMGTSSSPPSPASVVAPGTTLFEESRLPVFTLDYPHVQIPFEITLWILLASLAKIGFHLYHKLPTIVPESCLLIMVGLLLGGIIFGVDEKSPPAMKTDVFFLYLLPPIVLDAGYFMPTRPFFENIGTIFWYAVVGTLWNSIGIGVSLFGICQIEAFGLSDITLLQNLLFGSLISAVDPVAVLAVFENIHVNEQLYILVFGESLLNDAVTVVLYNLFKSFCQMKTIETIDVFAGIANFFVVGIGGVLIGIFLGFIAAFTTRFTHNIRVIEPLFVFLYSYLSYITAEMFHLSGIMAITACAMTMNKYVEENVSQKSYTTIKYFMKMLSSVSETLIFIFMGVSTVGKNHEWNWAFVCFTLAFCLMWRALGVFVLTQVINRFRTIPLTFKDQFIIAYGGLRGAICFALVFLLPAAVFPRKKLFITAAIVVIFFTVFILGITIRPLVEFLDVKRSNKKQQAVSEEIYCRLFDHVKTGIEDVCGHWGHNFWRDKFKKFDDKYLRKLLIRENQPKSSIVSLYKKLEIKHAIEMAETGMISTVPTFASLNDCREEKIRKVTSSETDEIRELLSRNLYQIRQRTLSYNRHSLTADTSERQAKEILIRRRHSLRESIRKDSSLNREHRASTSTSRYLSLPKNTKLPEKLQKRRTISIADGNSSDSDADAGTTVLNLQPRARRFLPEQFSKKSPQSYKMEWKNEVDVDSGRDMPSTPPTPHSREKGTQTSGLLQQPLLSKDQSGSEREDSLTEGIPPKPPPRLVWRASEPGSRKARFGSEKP

NHE [3] = target: T1, NHE; assay: inhibitory action on NHE subtypes: NHE; conditions: therapeutically utilizable concentration range
NHE-5 = target: T3, NHE-5 (Homo sapiens, UniProt Q14940); assay: inhibitory action on NHE subtypes: NHE-5; conditions: therapeutically utilizable concentration range
T3 sequence (Q14940 1-896): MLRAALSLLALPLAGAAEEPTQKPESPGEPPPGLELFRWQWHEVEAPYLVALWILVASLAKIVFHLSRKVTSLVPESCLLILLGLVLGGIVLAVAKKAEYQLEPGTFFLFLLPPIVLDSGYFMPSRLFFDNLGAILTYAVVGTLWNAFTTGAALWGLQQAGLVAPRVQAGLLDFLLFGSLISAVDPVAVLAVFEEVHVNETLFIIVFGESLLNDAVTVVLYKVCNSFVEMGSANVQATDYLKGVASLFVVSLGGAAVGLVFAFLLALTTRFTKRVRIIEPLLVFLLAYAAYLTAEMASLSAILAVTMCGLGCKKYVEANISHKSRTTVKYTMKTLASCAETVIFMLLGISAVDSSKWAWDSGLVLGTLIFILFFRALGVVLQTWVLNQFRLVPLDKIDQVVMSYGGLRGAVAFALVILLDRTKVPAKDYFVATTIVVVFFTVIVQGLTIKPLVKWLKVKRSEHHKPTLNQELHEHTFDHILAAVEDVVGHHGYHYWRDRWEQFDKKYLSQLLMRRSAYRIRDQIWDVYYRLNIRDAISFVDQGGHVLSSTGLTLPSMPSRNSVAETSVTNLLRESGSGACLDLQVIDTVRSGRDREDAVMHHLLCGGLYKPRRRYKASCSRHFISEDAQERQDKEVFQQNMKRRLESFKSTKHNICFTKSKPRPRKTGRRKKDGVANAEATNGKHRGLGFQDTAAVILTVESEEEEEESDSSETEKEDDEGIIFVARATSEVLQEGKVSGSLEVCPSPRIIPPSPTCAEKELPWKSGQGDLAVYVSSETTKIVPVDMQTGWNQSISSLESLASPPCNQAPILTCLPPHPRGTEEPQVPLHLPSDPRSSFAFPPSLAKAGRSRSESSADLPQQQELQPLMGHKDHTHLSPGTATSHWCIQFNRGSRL

SMILES: CN1Cc2c(Cl)cc(Cl)cc2C(c2ccc(S(=O)(=O)N=C(N)N)cc2)C1 (stereo not shown) [Example 1, N-Diaminomethylene-4-(6,8-dichloro-2-methyl-1,2,3,4-tetrahydro-isoquinolin-4-yl)benzenesulfonamide, dihydrochloride]
IC50 (NHE [1]): 35 nM | intrinsic effect on synaptic transmission (hippocampus sections; before tetanus): no intrinsic effect | potentiation of the EPSP 80 min after the stimulus (hippocampus sections; weak tetanus, 80 min after stimulus (control 113%)): 137 % of the baseline

SMILES: Clc1cccc(Cl)c1N=C1NCCN1 [Clonidine]
affinity for the adrenergic alpha-2 receptor [2]: high affinity | affinity for the imidazoline receptor (imidazoline receptor): high affinity

SMILES: CN1Cc2c(Cl)cc(Cl)cc2C(c2ccc(S(=O)(=O)N=C(N)N)cc2)C1 (stereo not shown) (as salt: hydrochloride) [Example 1, N-Diaminomethylene-4-(6,8-dichloro-2-methyl-1,2,3,4-tetrahydro-isoquinolin-4-yl)benzenesulfonamide, dihydrochloride]
melting point: 140 °C (dec.)

inhibitory action on NHE-1 (NHE-1): no relevant inhibitory actions | inhibitory action on NHE-2 (NHE-2): no relevant inhibitory actions | inhibitory action on NHE (NHE [3]): no relevant inhibitory actions | inhibitory action on NHE-5 (NHE-5): no relevant inhibitory actions
SMILES: Cc1csc(Cl)c1NC1=NCCN1 [tiamenidine]

Source: patent publication US8455515B2, “Substituted 4-phenyltetrahydroisoquinolines, process for their preparation, pharmaceutical compositions and therapeutic use” (Sanofi, priority 2005, dated 2013)
